# Laboratory results from PMC4669708 (Cell Death & Disease, 2015).
# Key:
# 3T3-SA cells = experiment: TNF-α/z-VAD (TZ)-induced necroptosis; type: cell-based, murine; settings: Supplementary Figures 3a, b
# Procedure: (§1) Cells were seeded in 12-, 24- or 96-well plates at proper cell density. For necroptosis or apoptosis assays, cells were incubated with the indicated compound combinations at concentrations stated for 14–24 h. Smac mimetic and z-VAD-FMK were added 30–60 min before treatment with TNF-α, FasL or TRAIL. Cell viability was determined using CellTiter Glo Luminescent Cell Viability Assay (Promega, Fitchburg, WI, USA) according to the manufacturer's instructions. Luminescence was recorded with a SpectraMax M5Multimode plate reader (Molecular Devices, Sunnyvale, CA, USA). For flow cytometry-based determination of viability, cells were harvested, collected by centrifugation, washed once and resuspended in staining buffer (1 × PBS, 10% FBS). Cells were incubated with 0.5 μg/ml PI for 10 min at room temperature (RT) in the dark. Flow cytometric analyses were performed on an LSR Fortessa (BD Biosciences) and analyzed with FlowJo software version 7.6.3 (Tree Star Inc, Ashland, OR, USA). Cell size was evaluated by forward scatter. PI-negative normal-sized cells were considered living and data were normalized to values of untreated controls. For detection of apoptosis, cells were resuspended in Annexin V Binding Buffer (BioLegend, San Diego, CA, USA) and stained with 0.5 μg/ml PI and Alexa Fluor 647 Annexin V (BioLegend) according to manufacturer's instructions.
# [1] = tested on: FADD-deficient Jurkat cells; experiment: Drug toxicity, cell viability without TNF-α; type: cell-based; settings: Homo sapiens, 24 h, no TNF-α, CellTiter Glo
# Procedure: as §1
# [2] = tested on: FADD-deficient Jurkat cells; experiment: TNF-α-induced necroptosis, cell viability (CellTiter Glo); type: cell-based, human; settings: 10 ng/ml TNF-α overnight
# Procedure: as §1, with “controls.” for “controls. For detection of apoptosis, cells were resuspended in Annexin V Binding Buffer (BioLegend, San Diego, CA, USA) and stained with 0.5 μg/ml PI and Alexa Fluor 647 Annexin V (BioLegend) according to manufacturer's instructions.”
# The compounds were transferred into drug plates by acoustic droplet ejection using an Echo 520 liquid handler (LABCYTE, Sunnyvale, CA, USA). Necroptosis was induced in FADD-deficient Jurkat cells by addition of 10 ng/ml TNF-α immediately before seeding onto drug plates at a density of 1x10^4 cells/well. After 16 h incubation, cell viability was determined using CellTiter Glo Luminescent Cell Viability Assay according to manufacturer's instructions. Data analysis was performed by calculating a percentage of control to normalize for variability across different plates. The signal for the negative control DMSO wells was set to 0%, whereas the wells containing the positive control Nec-1 were put to 100% for each plate individually.
# RIPK3 to MLKL binding = RIPK3 to MLKL binding (Homo sapiens, UniProt Q9Y572); settings: HT-29 HA-MLKL cells, doxycycline overnight; 0.5 μM ponatinib, 5 μM pazopanib
# RIPK3 to MLKL binding, sequence (Q9Y572 whole entry): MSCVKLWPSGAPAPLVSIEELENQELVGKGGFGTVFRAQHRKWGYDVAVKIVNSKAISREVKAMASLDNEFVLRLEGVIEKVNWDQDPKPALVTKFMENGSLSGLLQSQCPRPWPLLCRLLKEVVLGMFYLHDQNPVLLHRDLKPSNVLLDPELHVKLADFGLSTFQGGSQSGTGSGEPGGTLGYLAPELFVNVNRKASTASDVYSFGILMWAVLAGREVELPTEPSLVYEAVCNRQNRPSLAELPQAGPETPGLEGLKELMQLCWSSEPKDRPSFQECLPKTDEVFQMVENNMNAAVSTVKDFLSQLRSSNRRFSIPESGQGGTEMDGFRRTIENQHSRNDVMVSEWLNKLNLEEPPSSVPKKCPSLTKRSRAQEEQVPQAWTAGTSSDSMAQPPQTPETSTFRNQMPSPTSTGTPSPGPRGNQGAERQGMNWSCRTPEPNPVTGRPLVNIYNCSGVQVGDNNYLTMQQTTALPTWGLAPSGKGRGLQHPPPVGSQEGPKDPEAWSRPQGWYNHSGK
# L929 cells = experiment: TNF-α/z-VAD-FMK-induced necroptosis; type: cell-based, murine; settings: Supplementary Figures 3c, d
# Procedure: as §1
# RIPK3 = RIPK3 (Homo sapiens, UniProt Q9Y572); experiment: Recombinant kinase assay; type: biochemical; parameters: purchased Signalchem R09-10G
# RIPK3, sequence (Q9Y572 whole entry): as above
# Procedure: Recombinant RIPK1 or RIPK3 protein was incubated with the substrate MBP in kinase assay buffer (40 mM Tris-HCl pH 7.5, 10 mM MgCl2 and 1 mM DTT) in presence of 50 μM ATP, 5 μCi [γ-32 P]ATP and the indicated inhibitors in a total volume of 20 μl. […] The terminated reactions were spotted onto a SAM2 Biotin Capture membrane (Promega) and further processed according to the manufacturer's instructions. […] Data were normalized to a DMSO-treated control sample. For autoradiography, the reactions were stopped by addition of 5 μl 4x Laemmli buffer and incubated for 5 min at 95 °C.
# [3] = tested on: FADD-deficient Jurkat cells; experiment: Flow cytometry viability (propidium iodide / forward scatter), TNFα-induced necroptosis; type: cell-based; settings: human, 6 h
# Procedure: as §1
# endogenous RIPK3 = target: T1, endogenous RIPK3 (Homo sapiens, UniProt Q9Y572); experiment: Cellular thermal shift assay (CETSA); type: cell-based; settings: FADD-deficient Jurkat cells, 0.5 μM, 3 h
# T1 construct: endogenous in cells; host or cells: FADD-deficient Jurkat I2.1
# T1 sequence (Q9Y572 whole entry): as above
# Procedure: Drug target engagement in cells, causing stabilization of the respective protein, was analyzed essentially as described previously.[55] […] After treatment, cells were collected by centrifugation and resuspended in 1x PBS. The cell suspension was aliquoted into PCR tubes and heated for 3 min at 42, 46, 50, 54, 58 or 62 °C. Subsequently, cells were lysed by three consecutive freeze–thaw cycles using liquid nitrogen. The soluble fraction was separated from precipitated proteins by centrifugation at 13000 r.p.m. and 4 °C for 20 min. The supernatant, containing the soluble proteins, was transferred to a fresh tube and analyzed by immunoblotting.
Compound,block of necroptotic cell death (3T3-SA cells),IC50 [1] [µM],rescue of cell viability in drug screen ([2]; 0.5 and 1.5 μM),"EC50 ([2]; Homo sapiens, Jurkat, CellTiter Glo, read-out: EC50 for inhibiting necroptosis) [µM]",binding of RIPK3 to MLKL (RIPK3 to MLKL binding),protection from necroptosis (L929 cells),"RIPK3 kinase activity (MBP phosphorylation) (RIPK3; 50 μM ATP, Figure 4e inhibitors at 10 μM)","RIPK3 autophosphorylation (RIPK3; autoradiography, Supplementary Figure 4c)",viable cells [3],RIPK3 thermostability (target engagement) (endogenous RIPK3),block of necroptosis compared with ponatinib ([2]; Figure 3b)
"Cc1ccc(C(=O)Nc2ccc(CN3CCN(C)CC3)c(C(F)(F)F)c2)cc1C#Cc1cnc2cccnn12 [ponatinib, Ponatinib]",capable of blocking necroptotic cell death with comparable potency,1.6,robustly rescued cell viability at both concentrations,0.089,efficiently blocked binding of RIPK3 to MLKL,the effect was partial and confined to a small dosage window around 100 nM,strongly blocked phosphorylation,efficiently blocked,"79,3%",led to a shift in the RIPK3 thermostability curve,
Cc1ccc(C(=O)Nc2ccc(CN3CCN(CCCN)CC3)c(C(F)(F)F)c2)cc1C#Cc1cnc2cccnn12 [c-ponatinib],,,,,,,,,,,blocked necroptosis with only a minor reduction in potency
